Legend:
IFN-γ = test: SEB-induced IFN-γ production in human PBMC; format: cell-based; settings: 100 ng/ml SEB
cAMP = test: PGE2-induced cAMP elevation in human PBMC; format: cell-based; settings: PGE2 (10µM)
Protocol: Prostaglandin E2 (PGE2) binds to prostanoid receptors on monocytes, T cells and other leukocytes and consequently elevates intracellular cAMP levels, resulting in inhibition of cellular responses. The combination of PGE2 and a PDE4 inhibitor synergistically elevates cAMP levels in these cell types, and the elevation of cAMP in PBMC caused by PDE4 inhibitors in the presence of PGE2 is proportional to the inhibitory activity of that PDE4 inhibitor. Intracellular cAMP was measured in human PBMC as follows. PBMC were isolated as described above and plated in 96-well plates at 1 x 10^6 cells per well in RPMI-1640. The cells were pre-treated with compounds at 100, 10, 1, 0.1, 0.01, and 0 µM in a final concentration of 2% DMSO in duplicate at 37°C in a humidified incubator at 5% CO2 for one hour. The cells were then stimulated with PGE2 (10µM) (Sigma) for 1h. The cells were lysed with HCl, 0.1 N final concentration to inhibit phosphodiesterase activity and the plates were frozen at -20°C. The cAMP produced was measured using cAMP (low pH) Immunoassay kit (R&D Systems).

LTB4 = test: fMLF-induced LTB4 production in neutrophils; format: cell-based; settings: Neutrophil; human neutrophils; 1 µM fMLF
Protocol: N-formyl-methionine-leucine-phenylalanine (fMLF) is a bacterially derived peptide that activates neutrophils to rapidly degranulate, migrate, adhere to endothelial cells, and release leukotriene LTB4, a product of arachidonic acid metabolism and itself a neutrophil chemoattractant. Compounds were tested for the ability to block fMLF-induced neutrophil LTB4 production as previously described (Hatzelmann and Schudt, 2001, J. Pharm. Exp. Ther., 297:267-279), with the following modifications. Neutrophils were isolated as described above and resuspended in phosphate-buffered saline without calcium or magnesium (BioWhittaker) containing 10 mM HEPES pH 7.2 and plated in 96-well tissue culture plates at a concentration of 1.7 x 10^6 cells/well. Cells were treated with 50 µM thimerosal (Sigma)/1 mM CaCl2/1 mM MgCl2 for 15 minutes at 37°C 5% CO2, then treated with compounds at 1000, 200, 40, 8, 1.6, 0.32, 0.064, and 0 nM in a final DMSO concentration of 0.01 % in duplicate for 10 minutes. Neutrophils were stimulated with 1 µM fMLF for 30 minutes, then lysed by the addition of methanol (20% final concentration) and frozen in a dry ice/isopropanol bath for 10 minutes. Lysates were stored at -70°C until the LTB4 content was measured by competitive LTB4 ELISA (R&D Systems).

[1] = molecular target: PDE3 from human platelets (Homo sapiens, UniProt Q14432); test: PDE3 enzyme assay; format: biochemical
[2] = molecular target: PDE7 purified from Hut78 human T cells (Homo sapiens, UniProt Q13946); test: PDE7 enzyme assay; format: biochemical
Protocol: PDE7 is a cAMP-selective PDE expressed mainly in T cells and in skeletal muscle. T cell-derived cytokines such as IL-2 and IFN-γ are potentially regulatable via PDE7 inhibition. […] Compounds were tested against the PDE7 preparation in the presence of 10 nM cAMP as described for PDE4 in Table 1.

[3] = molecular target: T1, PDE5 from human platelets (Homo sapiens, UniProt O76074); test: PDE5 enzyme assay; format: biochemical
T1 construct: PDE5 from human platelets; from tissue; host or cells: human platelets

TNF-α [4] = test: IL-1β-induced TNF-α production from human PBMC; format: cell-based; settings: 50 ng/ml recombinant human IL-1β
Protocol: During the course of inflammatory diseases, TNF-α production is often stimulated by the cytokine 1L-1β, rather than by bacterially derived LPS. Compounds were tested for the ability to inhibit IL-1β-induced TNF-α production from human PBMC as described above for LPS-induced TNF-α production, except that the PBMC were isolated from source leukocyte units (Sera-Tec Biologicals, North Brunswick, NJ, USA) by centrifugation on Ficoll-Paque Plus (Amersham Pharmacia, Piscataway, NJ, USA), plated in 96-well tissue culture plates at 3 x 10^5 cells/well in RPMI-1640 medium (BioWhittaker, Walkersville, Maryland, USA) containing 10% heat-inactivated fetal bovine serum (Hyclone), 2 mM L-glutamine, 100 U/ml penicillin, and […] (complete medium), pretreated with compounds at 10, 2, 0.4, 0.08, 0.016, 0.0032, 0.00064, and 0 µM in duplicate at a final DMSO concentration of 0.1% at 37 °C in a humidified incubator at 5% CO2 for one hour, then stimulated with 50 ng/ml recombinant human IL-1β (Endogen) for 18 hours.

serum TNF-α = test: Mouse LPS-induced serum TNF-α inhibition; format: in vivo; settings: po, read-out: Mouse LPS-induced serum TNF-α inhibition (ED50, mg/kg, p.o.)
Protocol: Compounds were tested in this animal model according to previously described methods (Corral et al., 1996, Mol. Med., 2:506-515). Mouse LPS-induced serum TNF-α inhibition (ED50, mg/kg, p.o.) = 0.05 for Compound A.

TNF-α [5] = test: LPS-induced TNF-α production from human PBMC; format: cell-based; settings: LPS 100 ng/ml
Protocol: Lipopolysaccharide (LPS) is an endotoxin produced by gram-negative bacteria such as E. coli which induces production of many pro-inflammatory cytokines, including TNF-α. In peripheral blood mononuclear cells (PBMC), the TNF-α produced in response to LPS is derived from monocytes, which comprise approximately 5-20% of the total PBMC. Compounds were tested for the ability to inhibit LPS-induced TNF-α production from human PBMC as previously described (Muller et al., 1996, J. Med. Chem., 39:3238). PBMC from normal donors were obtained by Ficoll Hypaque (Pharmacia, Piscataway, NJ, USA) density centrifugation. Cells were cultured in RPMI (Life Technologies, Grand Island, NY, USA) supplemented with 10% AB± human serum (Gemini Bio-products, Woodland, CA, USA), 2 mM L-glutamine, 100 U/ml penicillin, and 100 µg/ml streptomycin (Life Technologies).
PBMC (2 x 10^5 cells) were plated in 96-well flat-bottom Costar tissue culture plates (Coming, NY, USA) in triplicate. Cells were stimulated with LPS (Sigma, St. Louis, MO, USA) at 100 ng/ml in the absence or presence of compounds. Compounds (Celgene Corp., Warren, NJ, USA) were dissolved in DMSO (Sigma) and further dilutions were done in culture medium immediately before use. The final DMSO concentration in all samples was 0.25%. Compounds were added to cells one hour before LPS stimulation. […]

Chain of PDE7 purified from Hut78 human T cells (Q13946 whole entry): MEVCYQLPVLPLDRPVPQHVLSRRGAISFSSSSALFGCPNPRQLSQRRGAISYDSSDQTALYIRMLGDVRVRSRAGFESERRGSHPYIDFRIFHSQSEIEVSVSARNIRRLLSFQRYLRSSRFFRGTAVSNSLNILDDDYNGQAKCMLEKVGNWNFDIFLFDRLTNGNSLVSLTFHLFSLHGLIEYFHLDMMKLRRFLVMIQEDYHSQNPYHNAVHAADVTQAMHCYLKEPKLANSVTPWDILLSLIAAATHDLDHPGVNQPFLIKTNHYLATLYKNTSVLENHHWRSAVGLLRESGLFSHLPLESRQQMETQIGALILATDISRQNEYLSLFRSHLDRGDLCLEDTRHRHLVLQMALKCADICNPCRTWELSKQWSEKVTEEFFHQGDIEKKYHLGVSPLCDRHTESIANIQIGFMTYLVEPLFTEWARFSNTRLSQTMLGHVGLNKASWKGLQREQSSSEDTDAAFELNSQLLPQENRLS
Chain of PDE3 from human platelets (Q14432 whole entry): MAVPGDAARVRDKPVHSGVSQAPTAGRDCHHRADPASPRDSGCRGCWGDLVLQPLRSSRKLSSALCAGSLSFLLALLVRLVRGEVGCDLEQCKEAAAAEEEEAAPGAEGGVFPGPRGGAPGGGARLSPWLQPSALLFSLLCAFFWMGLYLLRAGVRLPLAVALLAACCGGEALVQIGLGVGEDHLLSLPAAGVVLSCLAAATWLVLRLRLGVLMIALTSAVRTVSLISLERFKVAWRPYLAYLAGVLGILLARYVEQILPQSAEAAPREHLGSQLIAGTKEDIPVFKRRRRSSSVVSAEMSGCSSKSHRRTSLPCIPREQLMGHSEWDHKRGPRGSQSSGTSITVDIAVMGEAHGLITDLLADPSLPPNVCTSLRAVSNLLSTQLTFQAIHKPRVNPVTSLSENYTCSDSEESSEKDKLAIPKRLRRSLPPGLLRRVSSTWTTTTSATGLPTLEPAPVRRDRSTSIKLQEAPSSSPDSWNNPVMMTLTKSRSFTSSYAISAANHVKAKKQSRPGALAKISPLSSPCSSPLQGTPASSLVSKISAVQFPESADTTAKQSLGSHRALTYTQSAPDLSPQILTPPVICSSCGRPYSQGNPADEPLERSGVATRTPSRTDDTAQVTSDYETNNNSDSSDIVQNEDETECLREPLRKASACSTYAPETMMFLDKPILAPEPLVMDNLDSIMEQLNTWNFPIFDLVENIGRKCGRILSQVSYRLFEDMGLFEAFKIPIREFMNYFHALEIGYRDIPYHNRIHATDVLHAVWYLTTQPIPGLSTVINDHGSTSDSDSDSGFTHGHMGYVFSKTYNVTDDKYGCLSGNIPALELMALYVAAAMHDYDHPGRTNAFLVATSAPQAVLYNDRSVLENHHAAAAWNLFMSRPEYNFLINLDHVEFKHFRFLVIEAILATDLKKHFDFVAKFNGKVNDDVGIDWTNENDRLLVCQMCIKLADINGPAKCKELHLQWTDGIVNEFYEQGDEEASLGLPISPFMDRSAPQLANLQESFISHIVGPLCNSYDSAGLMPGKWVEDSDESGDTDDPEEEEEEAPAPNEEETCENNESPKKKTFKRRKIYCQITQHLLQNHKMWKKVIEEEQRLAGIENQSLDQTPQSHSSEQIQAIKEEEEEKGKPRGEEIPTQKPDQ

`CCOc1cc(C(CS(C)(=O)=O)N2C(=O)c3cccc(NC(C)=O)c3C2=O)ccc1OC` (single isomer, unassigned; (+)) [Compound A, (+)-2-[1-(3-ethoxy-4-methoxyphenyl)-2-methylsulfonylethyl]-4-acetylaminoisoindoline-1,3-dione] was tested, and the IC50 (IFN-γ) was 46 nM, the EC50 (cAMP) was 1580 nM and the IC50 (LTB4) was 2.48 nM. The “PDE Specificity Ratio PDE4/PDE3” value ([1]; from above data) was greater than 1200 fold, the inhibition at 10 µM ([1]; read-out: PDE3 (% inhib at 10 µM)) was 20% and the IC50 ([2]; 10 nM cAMP) was 20500 nM. The “PDE Specificity Ratio PDE7 IC50/PDE4 IC50” value ([2]; from above data) was 279 fold, the “PDE Specificity Ratio PDE4/PDE5” value ([3]; from above data) was greater than 30000 fold and the inhibition at 10 µM ([3]; read-out: PDE5 (% inhib at 10 µM)) was 3%. It also gave an IC50 (TNF-α [4]) of 83 nM, an ED50 (serum TNF-α) of 0.05 mg/kg and an IC50 (TNF-α [5]) of 77 nM.

Reference: patent EP2276483B1, “SOLID FORMS COMPRISING (+)-2-[1-(3-ETHOXY-4-METHOXYPHENYL)-2-METHYLSULFONYLETHYL]-4-ACETYLAMINOISOINDOLINE-1,3-DIONE, COMPOSITIONS THEREOF, AND USES THEREOF” (CELGENE CORPORATION, priority 2008, dated 2009)
